Results as given in ChEMBL document CHEMBL1129053, “Synthesis and pharmacology of a very potent cannabinoid lacking a phenolic hydroxyl with high affinity for the CB2 receptor” (J Med Chem, 1996).

Tested on: Mus musculus
Assay: Compound was evaluated in vivo for Pharmacology response in the mouse model Spontaneous Activity
Format: functional

Compound: CCCCCc1cc(O)c2c(c1)OC(C)(C)[C@@H]1CCC(C)=C[C@@H]21 [DRONABINOL]
- ED50: 2.9 µmol/kg
